Experimental data taken from patent publication US20170035884A1, “AQUEOUS GELLING COMPOSITIONS OF SOLUBLE ACTIVE PHARMACEUTICAL PEPTIDES PROVIDING MODIFIED RELEASE” (Ipsen Pharma S.A.S., priority 2012, published 2017).
Counter-ions that a name gives are not always drawn. Like-named read-outs stand apart in the source and are kept apart here.

Assay: Solubility testing of peptide 1 salts in gelling compositions (HPLC after filtration)
Type: physicochemical
Procedure: The solubility of the peptide 1 salts in the gelling compositions of Table 1 was evaluated using HPLC analysis after filtration.

Compound: CC(=O)NC(CCCNC(=N)N)C(=O)N[C@H]1CSSC[C@@H](C(N)=O)NC(=O)[C@H](Cc2c[nH]c3ccccc23)NC(=O)[C@H](CCCNC(=N)N)NC(=O)[C@@H](Cc2ccccc2)NC(=O)[C@H](Cc2cnc[nH]2)NC(=O)[C@@H](C)NC1=O (stereo partly drawn) [peptide 1 acetate salt, Ac-Arg-c(Cys-D-Ala-His-D-Phe-Arg-Trp-Cys)-NH2]
- solubility (38% glycerol gelling composition, in 38% glycerol, read-out: solubility): ≥ 100 mg/mL
- solubility (in 32% PEG 400): ≥ 100 mg/mL

Compound: CC(=O)NC(CCCNC(=N)N)C(=O)N[C@H]1CSSC[C@@H](C(N)=O)NC(=O)[C@H](Cc2c[nH]c3ccccc23)NC(=O)[C@H](CCCNC(=N)N)NC(=O)[C@@H](Cc2ccccc2)NC(=O)[C@H](Cc2cnc[nH]2)NC(=O)[C@@H](C)NC1=O (stereo partly drawn) [peptide 1 heptanoate salt, Ac-Arg-c(Cys-D-Ala-His-D-Phe-Arg-Trp-Cys)-NH2]
- solubility (in 32% PEG 400): 28.1 mg/mL
